The record followed here is US20200046763A1, “APPLICATION OF GSK3 INHIBITOR IN PREPARING A DRUG TO TREAT NIEMANN-PICK DISEASE TYPE C” (WUXI HANQIANG PHARMACEUTICAL TECHNOLOGY CO., LTD., priority 2016, published 2020).

Bounds are passed on as bounds.

For one assay, the system named is NPC1 KO mice. Nature of the assay: Effect of GSK3 inhibitor on NPC1 KO mouse model. The class given is in vivo. The note with it: LiCl 85 mg/kg or CHIR99021 20 mg/kg intraperitoneally daily from first week (b9: or same dose intragastrically). As for the experimental part:
NPC1 KO mice are divided into three groups (a control group, a LiCl treatment group and a CHIR99021 treatment group), with five mice in each group. From the first week after birth, the mice in the LiCl treatment group and the CHIR99021 treatment group are intraperitoneally injected with LiCl (85 mg/kg) and CHIR99021 (20 mg/kg) per day respectively, the mice in the control group are intraperitoneally injected with normal saline, and the survival rate of the mice is continuously observed.
An NPC1 gene knock-out (KO) mouse preparation method: the NPC1 genes are knocked out by CRISPY_Cas9 to obtain NPC1−/−mice.
The NPC mouse model is prepared according to the method of Embodiment II, and LiCl (the dose of 85 mg/kg) or CRIR99021 (the dose of 20 mg/kg) is intraperitoneally injected every day from the first week.
The testing indexes are phenotypes of hematological and neurological systems, as well as symptoms and signs.

Assay [1] relates to NPC1 KD or NPC1 KO hematopoietic and neural stem cells. Nature of the assay: Effect of GSK3 inhibitor on NP-C cell model (proliferation, stem cell self-renewal and differentiation). The class given is cell-based, mouse. Conditions: for self-renewal and differentiation capacities of hematopoietic and neural stem cells: NPC1 KD or NPC1 KO cells, LiCl 10 MM, CHIR99021 3 uM. As for the experimental part:
2) NPC1 gene expression knock-down (KD) human and mouse cells: lentivirus expressing human and mouse NPC1 shRNA is prepared, lentivirus infects human embryonic kidney 293T and Mouse Embryonic Fibroblast (MEF), positive infected cells are screened by puromycin, and qPCR and western blotting validate the effect of NPC1 gene expression knock-down, to obtain the NPC1 KD cell model.
According to the method of Embodiment I, NPC model cells are prepared, and hematopoietic stem cells and neural stem cells of the NPC1 KO mice are isolated.
Experimental procedures and measurement indexes are: treatment of NPC1 KD and NPC1 KO cells with GSK3 specific inhibitors, i.e., LiCl and CHIR99021, and observation of changes in cell proliferation and stern cell self-renewal and differentiation.

Where [2] appears, read: NPC1 KD hematopoietic stem cells, 10 mM LiCl.

On to `Cc1c[nH]c(-c2cnc(NCCNc3ccc(C#N)cn3)nc2-c2ccc(Cl)cc2Cl)n1` [CHIR99021], for which, in the assay with NPC1 KO mice, the “hematopoietic function of the mice” value is on record as “significantly improved” and the neurodegenerative change symptoms entry was “significantly improved”. In addition, the “self-renewal and differentiation capacities of hematopoietic and neural stem cells” value in assay [1] is “significantly improve”.
With `[Cl-].[Li+]` [LiCl], in the assay on NPC1 KO mice, the “hematopoietic function of the mice” value is “significantly improved” and the neurodegenerative change symptoms entry was “significantly improved”. In assay [1] (setting [2]), the “increase of colony formation capacity” value is given as at least 30% and the “increase of proliferation capacity of hematopoietic stem cells” value is given as at least 50%. Also, the “self-renewal and differentiation capacities of hematopoietic and neural stem cells” value in assay [1] is “significantly improve”.
